# Source: ChEMBL document CHEMBL5625242, “Discovery of brain permeable 2-Azabicyclo[2.2.2]octane sulfonamides as a novel class of presenilin-1 selective γ-secretase inhibitors” (Eur J Med Chem, 2023)
# Legend:
# Type in all cases: cell-based
# [1] = Inhibition of human PSEN1/APH1B expressed in MEF cells with Psen1/2 double knockout/Aph1ABC triple knockout by ELISA
# [2] = Inhibition of human PSEN1/APH1A expressed in MEF cells with Psen1/2 double knockout/Aph1ABC triple knockout by ELISA
# [3] = Inhibition of human PSEN2/APH1B expressed in MEF cells with Psen1/2 double knockout/Aph1ABC triple knockout by ELISA
# [4] = Inhibition of human PSEN2/APH1A expressed in MEF cells with Psen1/2 double knockout/Aph1ABC triple knockout by ELISA
# Homo sapiens [5] = species: Homo sapiens; experiment: Selectivity ratio of IC50 for human PSEN2/APH1B expressed in MEF cells with Psen1/2 double knockout/Aph1ABC triple knockout to IC50 for human PSEN1/APH1B expressed in MEF cells with Psen1/2 double knockout/Aph1ABC triple knockout
# Homo sapiens [6] = species: Homo sapiens; experiment: Selectivity ratio of IC50 for human PSEN2/APH1A expressed in MEF cells with Psen1/2 double knockout/Aph1ABC triple knockout to IC50 for human PSEN1/APH1B expressed in MEF cells with Psen1/2 double knockout/Aph1ABC triple knockout
Compound,IC50 [1] [nM],IC50 [2] [nM],IC50 [3] [nM],IC50 [4] [nM],Ratio IC50 (Homo sapiens [5]),Ratio IC50 (Homo sapiens [6])
COCC(=O)Nc1ccc([C@@H]2[C@@H]3CC[C@@H](CC3=O)N2S(=O)(=O)c2ccc(Cl)cc2)cc1 (racemic),1440,> 10000,> 10000,> 10000,–,–
CC(=O)Nc1ccc([C@@H]2[C@@H]3CC[C@@H](CC3=O)N2S(=O)(=O)c2ccc(Cl)cc2)cc1 (racemic),709,6310,> 10000,> 10000,–,–
Cc1ccc(S(=O)(=O)N2[C@H]3CC[C@@H]([C@H]2c2ccc(C(F)(F)F)cc2)[C@@H](O)C3)cc1 (racemic),50,208,> 8000,> 8000,–,–
O=C1C[C@@H]2CC[C@H]1[C@@H](c1cc(F)ccc1F)N2S(=O)(=O)c1ccc(Cl)cc1 (racemic),426,1020,> 10000,> 10000,25,25
O=C1C[C@@H]2CC[C@H]1[C@@H](c1ccc(Cl)cc1)N2S(=O)(=O)c1ccc(Cl)cc1 (racemic),182,1350,> 10000,> 10000,> 5,> 5
O=S(=O)(c1ccc(Cl)cc1)N1[C@H]2CC[C@H]([C@H](O)C2)[C@H]1c1cc(F)ccc1F (racemic),427,851,7760,7760,–,–
CC(=O)Nc1ccc([C@@H]2[C@@H]3CC[C@@H](CC3=O)N2S(=O)(=O)c2ccc(Cl)s2)cc1 (racemic),389,3020,8000,8500,–,–
O=C1C[C@@H]2CC[C@H]1[C@@H](c1ccc(OC(F)(F)F)cc1)N2S(=O)(=O)c1ccc(Cl)cc1 (racemic),190,1620,> 10000,> 10000,> 5,> 5
O=C1C[C@@H]2CC[C@H]1[C@@H](c1ccc(C(F)(F)F)cc1)N2S(=O)(=O)c1ccc(F)cc1 (racemic),208,1000,> 10000,> 10000,–,–
N#Cc1ccc([C@@H]2[C@@H]3CC[C@@H](CC3=O)N2S(=O)(=O)c2ccc(Cl)cc2)c(F)c1 (racemic),131,691,7580,3390,–,–
O=S(=O)(c1ccc(Cl)cc1)N1[C@H]2CC[C@@H]([C@H]1c1ccccc1)[C@@H](O)C2 (racemic),14,102,602,426,–,–
O=S(=O)(c1ccc(Cl)cc1)N1[C@H]2CC[C@H]([C@H](O)C2)[C@H]1c1ccc(C(F)(F)F)cc1 [listing 2 of 2 here],–,–,–,–,15,15
O=S(=O)(c1ccc(Cl)cc1)N1[C@H]2CC[C@@H]([C@H]1c1ccc(C(F)(F)F)nc1)[C@@H](O)C2 (racemic),38,263,> 2000,> 2000,–,–
O=C1C[C@@H]2CC[C@H]1[C@@H](c1ccccc1Cl)N2S(=O)(=O)c1ccc(Cl)cc1 (racemic),389,2630,> 10000,> 10000,–,–
O=S(=O)(c1ccc(Cl)cc1)N1[C@H]2CC[C@@H]([C@H]1c1ccc(Cl)cc1)[C@@H](O)C2 (racemic),46,147,> 2000,> 2000,–,–
O=S(=O)(c1ccc(Cl)cc1)N1[C@@H]2CCC[C@H]1c1cn[nH]c1C2,–,47.2,380,272,> 260,> 260
O=S(=O)(c1ccc(Cl)cc1)N1[C@H]2CC[C@H]([C@H](O)C2)[C@H]1c1ccc(C(F)(F)F)cc1 (racemic),109,758,> 10000,> 10000,–,–
N#Cc1ccc([C@@H]2[C@@H]3CC[C@@H](C[C@@H]3O)N2S(=O)(=O)c2ccc(Cl)cc2)cc1 (racemic),12,64,631,758,–,–
N#Cc1ccc([C@@H]2[C@@H]3CC[C@@H](C[C@H]3O)N2S(=O)(=O)c2ccc(Cl)cc2)cn1,> 10000,> 10000,> 10000,> 10000,–,–
CC(=O)Nc1ccc([C@@H]2[C@@H]3CC[C@@H](C[C@@H]3O)N2S(=O)(=O)c2ccc(Cl)cc2)cc1 (racemic),24.5,135,> 1300,1200,–,–
CCOC(=O)Nc1ccc([C@@H]2[C@@H]3CC[C@@H](C[C@@H]3O)N2S(=O)(=O)c2ccc(Cl)cc2)cc1 (racemic),29,190,912,288,–,–
O=C1C[C@@H]2CC[C@H]1[C@@H](c1ccc(Cl)cc1)N2S(=O)(=O)c1ccc(Cl)s1 (racemic),281,2240,> 10000,> 10000,–,–
COCC(=O)Nc1ccc([C@@H]2[C@@H]3CC[C@@H](C[C@@H]3O)N2S(=O)(=O)c2ccc(Cl)cc2)cc1 (racemic),52,208,2000,1410,–,–
CCNC(=O)Nc1ccc([C@@H]2[C@@H]3CC[C@@H](C[C@@H]3O)N2S(=O)(=O)c2ccc(Cl)cc2)cc1 (racemic),79.4,446,4790,2340,–,–

# The remaining molecules from weak to strong by IC50 [1], led by results:
IC50 [1] [nM],IC50 [2] [nM],IC50 [3] [nM],IC50 [4] [nM],Compound,Ratio IC50 (Homo sapiens [5]),Ratio IC50 (Homo sapiens [6])
5890,> 10000,> 10000,> 10000,O=C1C[C@@H]2CC[C@H]1[C@@H](c1ccc(C(F)(F)F)cc1)N2S(=O)(=O)c1ccccc1Cl (racemic),–,–
1950,> 10000,> 10000,> 10000,O=C1C[C@@H]2CC[C@H]1[C@@H](c1ccc(F)c(F)c1)N2S(=O)(=O)c1ccc(Cl)s1 (racemic),–,–
776,6460,> 10000,> 10000,O=S(=O)(c1ccc(Cl)cc1)N1[C@H]2CC[C@H]([C@H](O)C2)[C@H]1c1ccc(C(F)(F)F)nc1 (racemic),–,–
588,1900,> 10000,> 10000,O=C1C[C@@H]2CC[C@H]1[C@@H](c1ccc(C(F)(F)F)nc1)N2S(=O)(=O)c1ccc(Cl)s1 (racemic),–,–
426,2240,> 10000,> 10000,O=S(=O)(c1ccc(Cl)cc1)N1[C@H]2CC[C@H]([C@H](O)C2)[C@H]1c1ccccc1Cl (racemic),–,–
389,3800,8500,7000,CCNC(=O)Nc1ccc([C@@H]2[C@@H]3CC[C@@H](CC3=O)N2S(=O)(=O)c2ccc(Cl)cc2)cc1 (racemic),–,–
234,891,> 8000,> 8000,N#Cc1ccc([C@@H]2[C@@H]3CC[C@@H](CC3=O)N2S(=O)(=O)c2ccc(Cl)cc2)cc1 (racemic),–,–
158,1100,> 10000,> 10000,Cc1ccc(S(=O)(=O)N2[C@H]3CC[C@@H]([C@H]2c2ccc(C#N)nc2)[C@@H](O)C3)cc1 (racemic),–,–
110,759,–,–,O=S(=O)(c1ccc(Cl)cc1)N1[C@H]2CC[C@H]([C@H](O)C2)[C@H]1c1ccc(C(F)(F)F)cc1 [listing 1 of 2 here],–,–
74,398,> 10000,> 10000,O=S(=O)(c1ccc(Cl)s1)N1[C@H]2CC[C@@H]([C@H]1c1ccc(F)c(F)c1)[C@@H](O)C2 (racemic),–,–
62,380,> 10000,> 10000,COc1ccc([C@@H]2[C@@H]3CC[C@@H](C[C@@H]3O)N2S(=O)(=O)c2ccc(Cl)cc2)cn1 (racemic),–,–
58,199,> 2000,> 2000,O=S(=O)(c1ccc(Cl)s1)N1[C@H]2CC[C@@H]([C@H]1c1ccc(Cl)cc1)[C@@H](O)C2 (racemic),–,–
58,295,> 10000,> 10000,O=S(=O)(c1ccc(Cl)cc1)N1[C@H]2CC[C@@H]([C@H]1c1ccc(F)c(F)c1)[C@@H](O)C2 (racemic),–,–
55,281,> 5000,> 5000,Cc1ccc(S(=O)(=O)N2[C@H]3CC[C@H](C(=O)C3)[C@H]2c2ccc(C(F)(F)F)cc2)cc1 (racemic),> 100,> 100
39,147,3390,3020,N#Cc1ccc([C@@H]2[C@@H]3CC[C@@H](C[C@@H]3O)N2S(=O)(=O)c2ccc(Cl)s2)cn1 (racemic),–,–
37,151,> 10000,> 10000,O=S(=O)(c1ccc(Cl)cc1)N1[C@H]2CC[C@@H]([C@H]1c1ccc(OC(F)(F)F)cc1)[C@@H](O)C2 (racemic),–,–
26,72.4,851,513,CC(=O)Nc1ccc([C@@H]2[C@@H]3CC[C@@H](C[C@@H]3O)N2S(=O)(=O)c2ccc(Cl)s2)cc1 (racemic),–,–
